Assay results published in publication PMC8348901, “Novel N-Substituted 3-Aryl-4-(diethoxyphosphoryl)azetidin-2-ones as Antibiotic Enhancers and Antiviral Agents in Search for a Successful Treatment of Complex Infections” (International Journal of Molecular Sciences, 2021).
Where two headings read alike, the source gives them in different places.

Columns and labels:
MRSA HEMSA 5 = test: Oxacillin MIC reduction (adjuvant) microdilution assay; assay type: cell-based, Staphylococcus aureus; conditions: for Activity Gain [A]: MIC(OXA)/MIC(OXA+Cpd), compound 0.5 mM, adjuvant activity if A ≥ 4
Method: (§1) Since the lack of direct antibacterial activity of the obtained azetidinones was observed, all isomers trans and cis were investigated on their “adjuvant” properties, i.e., an ability to enhance the effectiveness of antibiotics against S. aureus strains. Thus, the compounds were tested in combination with the known β-lactam antibiotic, oxacillin, in the microdilution assays. The ability of the tested azetidinones to reduce minimum inhibitory concentration (MIC) of oxacillin against both, the referenced and the resistant S. aureus strains, was assessed.
(§2) The in-vitro antibacterial property and the capacity of tested compounds to increase the efficacy of antibiotics were evaluated in two Staphylococcus aureus strains, i.e., the reference clonal complex 5 (CC5) methicillin-susceptible (MSSA) strain ATCC 25923, and the methicillin-resistant (MRSA) extensively drug-resistant (XDR) clinical isolate HEMSA-5 [46].
(§3) In order to assess the increase of antibiotic efficacy, the assays were conducted by determining if/to what extent the investigated compounds reduce MICs of oxacillin by means of a serial dilution broth microplate method, in accordance with the CLSI requirements. The concentrations of compounds used in the MICs reduction assay were no greater than 1/4 of their respective MICs to ensure that cell viability was not affected by the intrinsic antibacterial activity of the molecules. Serial two-fold dilutions of oxacillin (Sigma-Aldrich; St. Louis, MI, USA, cat. no. 28221), were prepared in […] of the Mueller–Hinton broth (Merck; Darmstadt, Germany, cat. no. 1102930500). Suitable concentrations of the compounds (total volume […]) were then added. Bacterial suspensions were diluted to OD ¼ 0.5. The resulting suspensions were then diluted 1:100 and added in the volume of […] into the oxacillin serial dilutions with the compounds. The results were read after 20-h incubation at 37 °C.
(§4) The ability of compounds to improve antibiotic efficacy was expressed as the activity gain [A] parameter calculated according to the formula given in Figure 10.
(§5) Figure 10 Activity gain. MICAnt corresponds to the MIC of oxacillin in the absence of a compound tested and MICAnt + Comp refers to the MIC of oxacillin paired with a compound tested.

S. aureus ATCC 25923 = test: as above; assay type: cell-based, Staphylococcus aureus; conditions: for Activity Gain [A]: MIC(OXA)/MIC(OXA+Cpd), compound 0.5 mM, adjuvant activity if A ≥ 4
Method: as §1, §2, §3, §4, §5

[1] = system: DND-41 (acute lymphoblastic leukemia); test: Cytostatic activity (cell proliferation); assay type: cell-based
Method: (§6) The 50% cytostatic inhibitory concentration (IC50) causing a 50% decrease in cell proliferation was determined for all obtained compounds toward 9 cancerous cell lines, i.e.,: Capan-1 (pancreatic adenocarcinoma), Hap1 (chronic myeloid leukemia), HCT-116 (colorectal carcinoma), NCI-H460 (lung carcinoma), DND-41 (acute lymphoblastic leukemia), HL-60 (acute myeloid leukemia), K-562 (chronic myeloid leukemia), MM.1S (multiple myeloma), Z-138 non-Hodgkin lymphoma), as well as normal retina (non-cancerous) cells (hTERT RPE-1). Docetaxel, etoposide and stauroporine were used as the reference compounds.
(§7) All assays were performed in 96-well microtiter plates. To each well was added (5–7.5) × 10^4 tumor cells and a given amount of the tested compound. The cells were allowed to proliferate at 37 °C in a humidified, CO2-controlled atmosphere. At the end of the incubation period, the cells were counted in a Coulter counter. The IC50 (50% inhibitory concentration) was defined as the concentration of the compound that inhibited cell proliferation by 50%.

[2] = system: HCT-116 (colorectal carcinoma); test: Cytostatic activity (cell proliferation); assay type: cell-based
Method: as §6, §7

[3] = system: Hap1 (chronic myeloid leukemia); test: Cytostatic activity (cell proliferation); assay type: cell-based
Method: as §6, §7

[4] = system: NCI-H460 (lung carcinoma); test: Cytostatic activity (cell proliferation); assay type: cell-based
Method: as §6, §7

[5] = system: hTERT RPE-1 normal retina (non-cancerous) cells; test: Cytostatic activity (cell proliferation); assay type: cell-based
Method: as §6, §7

[6] = system: Capan-1 (pancreatic adenocarcinoma); test: Cytostatic activity (cell proliferation); assay type: cell-based
Method: as §6, with “RPE-1).” for “RPE-1). Docetaxel, etoposide and stauroporine were used as the reference compounds.”
as §7, with “counter.” for “counter. The IC50 (50% inhibitory concentration) was defined as the concentration of the compound that inhibited cell proliferation by 50%.”

[7] = oxacillin MIC in presence of 0.5 mM compound

SMILES	Activity Gain [A] (MRSA HEMSA 5)	Activity Gain [A] (S. aureus ATCC 25923)	IC50 ([1]; DND41) [µM]	IC50 ([2]; Homo sapiens, HCT-116) [µM]	IC50 ([3]; Homo sapiens, HAP1) [µM]	IC50 ([4]; Homo sapiens, NCI-H460) [µM]	IC50 ([5]; hTERT-RPE1) [µM]	IC50 ([6]; Homo sapiens, CAPAN-1) [µM]	OXA+ Cpd MIC (MRSA HEMSA 5; [7]) [µg/mL]	OXA+ Cpd MIC (S. aureus ATCC 25923; [7]) [µg/mL]	IC50 [1] [µM]	IC50 [2] [µM]	IC50 [3] [µM]	IC50 [4] [µM]	IC50 [5] [µM]	IC50 [6] [µM]	MIC (MRSA HEMSA 5; Staphylococcus aureus, oxacillin alone, read-out: OXA MIC) [µg/mL]	MIC (S. aureus ATCC 25923; Staphylococcus aureus, ATCC25923, oxacillin alone, read-out: OXA MIC) [µg/mL]
CCOP(=O)(OCC)[C@@H]1[C@H](c2ccc(F)cc2F)C(=O)N1C (relative stereo) [cis-10e, cis-N-methyl-3-(2,4-difluorophenyl)-4-(diethoxyphosphoryl)azetidin-2-one]	1	1	> 100	> 100	> 100	92.6	> 100	56.8										
CCOP(=O)(OCC)[C@H]1[C@H](c2ccccc2)C(=O)N1Cc1ccccc1 (relative stereo) [trans-11a, trans-N-benzyl-3-phenyl-4-(diethoxyphosphoryl)azetidin-2-one]	1–2	<0.5	> 100	> 100	63.6	50.9	> 100	61										
COc1cc([C@@H]2c3cc4c(cc3[C@@H](O[C@@H]3O[C@@H]5CO[C@@H](C)O[C@H]5[C@H](O)[C@H]3O)[C@H]3COC(=O)[C@H]23)OCO4)cc(OC)c1O [Etoposide, reference compound]			0.06		0.04	1.35	0.23	0.15										
CCOP(=O)(OCC)[C@@H]1[C@H](c2ccccc2F)C(=O)N1C (relative stereo) [cis-10b, cis-N-methyl-3-(2-fluorophenyl)-4-(diethoxyphosphoryl)azetidin-2-one]	1	0.5	> 100	> 100	14.5	45.2	> 100	31.9										
CCOP(=O)(OCC)[C@H]1[C@H](c2cccc(F)c2)C(=O)N1Cc1ccccc1 (relative stereo) [trans-11c, trans-N-benzyl-3-(3-fluorophenyl)-4-(diethoxyphosphoryl)azetidin-2-one]	1	<0.5	> 100	45.5	56.1	44.3	45.9	40.1										
CCOP(=O)(OCC)[C@@H]1[C@H](c2ccccc2F)C(=O)N1Cc1ccccc1 (relative stereo) [cis-11b, cis-N-benzyl-3-(2-fluorophenyl)-4-(diethoxyphosphoryl)azetidin-2-one]	1	1	> 100	74.1	> 100	72.8	> 100	53										
CCOP(=O)(OCC)[C@@H]1[C@H](c2ccc(F)cc2)C(=O)N1C (relative stereo) [cis-10d, cis-N-methyl-3-(4-fluorophenyl)-4-(diethoxyphosphoryl)azetidin-2-one]	1	0.5	> 100	86.5	70.3	71	> 100	> 100										
CCOP(=O)(OCC)[C@H]1[C@H](c2ccc(F)cc2)C(=O)N1C (relative stereo) [trans-10d, trans-N-methyl-3-(4-fluorophenyl)-4-(diethoxyphosphoryl)azetidin-2-one]	1	0.5	> 100	> 100	58.1	41.3	> 100	45.7										
CCOP(=O)(OCC)[C@H]1[C@H](c2ccccc2F)C(=O)N1Cc1ccccc1 (relative stereo) [trans-11b, trans-N-benzyl-3-(2-fluorophenyl)-4-(diethoxyphosphoryl)azetidin-2-one]	1–2	<0.5	> 100	> 100	> 100	56.7	> 100	51.9										
CCOP(=O)(OCC)[C@H]1[C@H](c2ccccc2F)C(=O)N1C (relative stereo) [trans-10b, trans-N-methyl-3-(2-fluorophenyl)-4-(diethoxyphosphoryl)azetidin-2-one]	1	0.5	> 100	44.1	38.7	34.8	> 100	53.1										
CC(=O)O[C@@]12CO[C@@H]1C[C@H](O)[C@@]1(C)C(=O)[C@H](O)C3=C(C)[C@@H](OC(=O)[C@H](O)[C@@H](NC(=O)OC(C)(C)C)c4ccccc4)C[C@@](O)([C@@H](OC(=O)c4ccccc4)[C@H]21)C3(C)C [Docetaxel, reference compound]			1.63	0.25	1.19	0.89	25	0.95										
CCOP(=O)(OCC)[C@@H]1[C@H](c2ccccc2)C(=O)N1Cc1ccccc1 (relative stereo) [cis-11a, cis-N-benzyl-3-phenyl-4-(diethoxyphosphoryl)azetidin-2-one]	1–2	0.5	> 100	87.9	> 100	78.8	> 100	95.2										
CCOP(=O)(OCC)[C@@H]1[C@H](c2ccccc2)C(=O)N1C (relative stereo) [cis-10a, cis-N-methyl-3-phenyl-4-(diethoxyphosphoryl)azetidin-2-one]	1–2	0.5							256 to 512	1	> 100	> 100	46.3	> 100	> 100	37.8		
CCOP(=O)(OCC)[C@H]1[C@H](c2ccc(F)cc2)C(=O)N1Cc1ccccc1 (relative stereo) [trans-11d, trans-N-benzyl-3-(4-fluorophenyl)-4-(diethoxyphosphoryl)azetidin-2-one]	2	0.5	> 100	44.3	48.3	28.4	73	35.8										
CN[C@@H]1C[C@H]2O[C@@](C)([C@@H]1OC)n1c3ccccc3c3c4c(c5c6ccccc6n2c5c31)C(=O)NC4 [Stauroporine, reference compound]											21.5	0.09	3.55	11.5	0.25			
Cc1onc(-c2ccccc2)c1C(=O)N[C@@H]1C(=O)N2[C@@H]1SC(C)(C)[C@@H]2C(=O)O [oxacillin, reference compound]																	512	0.5
